Experimental data taken from paper PMC6812009, “Covalent Aurora A regulation by the metabolic integrator coenzyme A” (Redox Biology, 2019).

Key:
Assay in all cases: Kinase profiling screen (radioactive filter-binding assay)
Assay type in all cases: biochemical
PKD1 = biological target: T1, PKD1 (Homo sapiens, UniProt Q15139); conditions: 100 μM compound, 50 μM ATP; read-out: Kinase activity, % of activity in the absence of inhibitor
T1 sequence (Q15139 1-912): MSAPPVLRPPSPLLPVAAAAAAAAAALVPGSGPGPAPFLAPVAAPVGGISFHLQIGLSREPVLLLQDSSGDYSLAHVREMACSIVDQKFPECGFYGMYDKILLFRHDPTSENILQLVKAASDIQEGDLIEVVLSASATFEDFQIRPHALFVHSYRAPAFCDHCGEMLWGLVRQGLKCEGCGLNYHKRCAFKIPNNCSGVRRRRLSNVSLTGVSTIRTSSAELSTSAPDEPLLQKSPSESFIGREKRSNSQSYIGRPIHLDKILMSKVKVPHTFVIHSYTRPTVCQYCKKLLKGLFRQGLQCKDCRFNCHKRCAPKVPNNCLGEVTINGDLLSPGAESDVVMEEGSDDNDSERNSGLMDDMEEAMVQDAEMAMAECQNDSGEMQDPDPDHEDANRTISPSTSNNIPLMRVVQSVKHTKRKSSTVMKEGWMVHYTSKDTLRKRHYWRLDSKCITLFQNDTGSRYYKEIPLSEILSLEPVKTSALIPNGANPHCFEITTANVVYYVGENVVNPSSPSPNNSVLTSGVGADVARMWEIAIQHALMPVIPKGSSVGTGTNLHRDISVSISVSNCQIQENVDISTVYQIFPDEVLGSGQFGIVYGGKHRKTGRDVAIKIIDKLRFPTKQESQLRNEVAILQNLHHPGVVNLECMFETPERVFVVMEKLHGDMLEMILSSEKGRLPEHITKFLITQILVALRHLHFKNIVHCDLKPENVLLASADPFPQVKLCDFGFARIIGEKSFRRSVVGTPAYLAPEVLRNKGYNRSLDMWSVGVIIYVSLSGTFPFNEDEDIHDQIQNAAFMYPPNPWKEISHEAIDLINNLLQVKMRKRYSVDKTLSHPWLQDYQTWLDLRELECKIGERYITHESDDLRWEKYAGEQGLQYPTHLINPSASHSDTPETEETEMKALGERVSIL
Procedure: (§1) Profiling of 117 protein kinases with CoA, dpCoA and ADP was carried out at the International Centre for Protein Kinase Profiling at the University of Dundee. Each compound was tested in vitro, in duplicate, at 100 μM final concentration using recombinant kinases, model substrates and optimal concentrations of ATP. Bacterially expressed full-length His-Aurora A was used to determine the IC50 value for CoA (in the presence or absence of DTT), dpCoA, ADP and desulfo-CoA. The assay was performed in the presence of 5 μM competing ATP. To examine whether the inhibitory effect of CoA on Aurora A is modulated by TPX2, IC50 values for CoA were also generated in the presence and absence of 1 μg TPX2 (residues 1–43) fragment.

NUAK1 = biological target: T2, NUAK1 (Homo sapiens, UniProt O60285); conditions: 100 μM compound, 20 μM ATP; read-out: Kinase activity, % of activity in the absence of inhibitor
T2 sequence (O60285 1-661): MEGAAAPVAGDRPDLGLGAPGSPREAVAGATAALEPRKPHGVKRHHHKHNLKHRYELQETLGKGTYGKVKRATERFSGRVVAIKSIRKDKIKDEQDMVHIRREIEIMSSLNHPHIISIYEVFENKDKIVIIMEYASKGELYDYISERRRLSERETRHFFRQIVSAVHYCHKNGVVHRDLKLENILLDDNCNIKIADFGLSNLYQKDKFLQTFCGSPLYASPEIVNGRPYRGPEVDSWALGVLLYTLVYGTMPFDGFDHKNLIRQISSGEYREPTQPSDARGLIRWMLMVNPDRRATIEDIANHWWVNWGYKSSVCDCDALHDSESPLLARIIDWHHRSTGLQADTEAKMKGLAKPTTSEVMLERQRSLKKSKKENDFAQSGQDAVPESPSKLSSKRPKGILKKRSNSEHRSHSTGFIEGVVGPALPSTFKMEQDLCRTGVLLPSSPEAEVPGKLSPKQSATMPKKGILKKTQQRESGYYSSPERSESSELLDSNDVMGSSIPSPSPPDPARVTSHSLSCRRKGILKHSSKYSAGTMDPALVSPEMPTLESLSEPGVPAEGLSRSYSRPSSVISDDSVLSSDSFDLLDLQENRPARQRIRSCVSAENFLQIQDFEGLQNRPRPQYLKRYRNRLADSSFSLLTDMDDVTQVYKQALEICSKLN
Procedure: as §1

HIPK3 = HIPK3 (Homo sapiens, UniProt Q9H422); conditions: 100 μM compound, 20 μM ATP; read-out: Kinase activity, % of activity in the absence of inhibitor
Sequence of HIPK3 (Q9H422 whole entry): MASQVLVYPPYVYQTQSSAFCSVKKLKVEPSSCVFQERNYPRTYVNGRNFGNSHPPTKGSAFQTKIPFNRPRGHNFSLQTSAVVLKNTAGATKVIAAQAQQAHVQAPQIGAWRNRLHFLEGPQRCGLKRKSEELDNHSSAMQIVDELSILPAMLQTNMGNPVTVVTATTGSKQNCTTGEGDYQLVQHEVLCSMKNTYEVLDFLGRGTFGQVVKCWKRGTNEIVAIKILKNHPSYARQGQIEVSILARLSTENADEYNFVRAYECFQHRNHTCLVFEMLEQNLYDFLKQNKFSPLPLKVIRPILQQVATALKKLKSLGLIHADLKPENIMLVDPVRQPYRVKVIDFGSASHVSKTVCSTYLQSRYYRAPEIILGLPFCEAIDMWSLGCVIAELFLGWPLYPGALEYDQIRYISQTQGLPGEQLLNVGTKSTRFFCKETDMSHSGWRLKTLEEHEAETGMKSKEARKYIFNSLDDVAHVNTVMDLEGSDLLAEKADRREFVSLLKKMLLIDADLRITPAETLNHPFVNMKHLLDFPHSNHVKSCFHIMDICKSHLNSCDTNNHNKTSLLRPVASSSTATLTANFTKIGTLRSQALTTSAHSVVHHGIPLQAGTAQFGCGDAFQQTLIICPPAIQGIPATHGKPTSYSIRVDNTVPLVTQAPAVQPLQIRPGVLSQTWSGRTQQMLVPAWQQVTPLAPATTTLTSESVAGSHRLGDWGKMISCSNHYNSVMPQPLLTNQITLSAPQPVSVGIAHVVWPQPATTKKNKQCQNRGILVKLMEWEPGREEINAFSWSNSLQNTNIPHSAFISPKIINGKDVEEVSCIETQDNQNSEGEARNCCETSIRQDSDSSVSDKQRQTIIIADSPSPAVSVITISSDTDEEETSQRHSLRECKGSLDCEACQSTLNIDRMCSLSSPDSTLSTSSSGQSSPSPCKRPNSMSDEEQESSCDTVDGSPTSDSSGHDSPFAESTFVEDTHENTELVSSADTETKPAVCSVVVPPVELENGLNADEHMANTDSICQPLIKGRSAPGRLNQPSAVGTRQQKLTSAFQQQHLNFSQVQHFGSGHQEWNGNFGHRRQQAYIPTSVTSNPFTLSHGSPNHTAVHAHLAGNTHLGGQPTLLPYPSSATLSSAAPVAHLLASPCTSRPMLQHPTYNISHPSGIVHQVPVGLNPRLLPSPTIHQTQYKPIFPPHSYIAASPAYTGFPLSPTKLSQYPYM
Procedure: as §1

TAK1 = biological target: T3, TAK1 (Homo sapiens, UniProt O43318); conditions: 100 μM compound, 5 μM ATP; read-out: Kinase activity, % of activity in the absence of inhibitor
T3 sequence (O43318 1-303 limits assumed): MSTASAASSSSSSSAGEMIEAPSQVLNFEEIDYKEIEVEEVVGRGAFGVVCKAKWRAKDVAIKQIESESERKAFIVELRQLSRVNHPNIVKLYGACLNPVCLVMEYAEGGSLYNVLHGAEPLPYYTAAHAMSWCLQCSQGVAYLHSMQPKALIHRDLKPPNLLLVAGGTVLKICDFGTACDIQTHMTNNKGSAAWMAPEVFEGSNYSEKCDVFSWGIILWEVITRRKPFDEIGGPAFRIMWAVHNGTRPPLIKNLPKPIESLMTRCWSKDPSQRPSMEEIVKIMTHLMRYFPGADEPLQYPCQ
Procedure: as §1

PKCζ = biological target: T4, PKCζ (Homo sapiens, UniProt Q05513); conditions: 100 μM compound, 5 μM ATP; read-out: Kinase activity, % of activity in the absence of inhibitor
T4 sequence (Q05513 1-592): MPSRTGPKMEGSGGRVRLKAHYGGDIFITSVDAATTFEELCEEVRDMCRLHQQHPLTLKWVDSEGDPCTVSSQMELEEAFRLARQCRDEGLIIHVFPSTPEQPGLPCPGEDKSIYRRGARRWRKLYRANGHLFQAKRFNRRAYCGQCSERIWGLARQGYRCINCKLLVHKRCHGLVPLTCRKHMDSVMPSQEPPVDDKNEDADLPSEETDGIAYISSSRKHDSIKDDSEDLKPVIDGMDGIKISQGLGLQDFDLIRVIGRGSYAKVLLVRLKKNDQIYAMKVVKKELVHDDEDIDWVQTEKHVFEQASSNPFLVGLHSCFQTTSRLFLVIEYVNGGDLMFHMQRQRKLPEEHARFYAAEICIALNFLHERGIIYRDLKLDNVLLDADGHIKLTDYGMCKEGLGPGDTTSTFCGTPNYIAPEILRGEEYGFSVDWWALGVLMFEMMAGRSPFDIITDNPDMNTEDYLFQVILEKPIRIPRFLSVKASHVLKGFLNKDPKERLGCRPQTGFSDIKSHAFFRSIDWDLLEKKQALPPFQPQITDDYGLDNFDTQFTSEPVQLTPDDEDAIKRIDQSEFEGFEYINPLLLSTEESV
Procedure: as §1

Row | SMILES | activity at 100 µM (PKD1) | activity at 100 µM (NUAK1) | activity at 100 µM (HIPK3) | activity at 100 µM (TAK1) | activity at 100 µM (PKCζ)
1 | CC(C)(COP(=O)(O)OP(=O)(O)OC[C@H]1O[C@@H](n2cnc3c(N)ncnc32)[C@H](O)[C@@H]1OP(=O)(O)O)[C@@H](O)C(=O)NCCC(=O)NCCS [CoA, Coenzyme A] | 112% | 98.3% | 123% | 115% | 99.3%
2 | CC(C)(COP(=O)(O)OP(=O)(O)OCC1OC(n2cnc3c(N)ncnc32)C(O)C1O)C(O)C(=O)NCCC(=O)NCCS (stereo not drawn) [dpCoA, dephospho-CoA] | 104% | 68.3% | 91.5% | 79.6% | 89.9%
3 | Nc1ncnc2c1ncn2C1OC(COP(=O)(O)OP(=O)(O)O)C(O)C1O (stereo not drawn) [ADP] | 56.2% | 32.4% | 34.2% | 15.8% | 37.7%
